Experiments:
U87-MG cells [1] = test: Methuosis-like vacuolization by microscopy; type: cell-based; conditions: 15 μM AS1411 for 72 hrs
Method: FIG. 5. A) AS1411 induces methuosis-like vacuolization in U87-MG Cells, untreated U87-MG cells; B) […] cells treated with 10 μM MIPP for 24 hrs; C) U87-MG cells treated with 15 μM AS1411 for 72 hrs. D) U87-MG cells treated with 15 μM AS1411 for 192 hrs. E) Quantification of number of cells with >5 vacuoles.
U87-MG cells were grown to approximately 50% confluency in standard flat bottom 6 well cell culture plates. The cells were then treated with either 10 μM MIPP (a compound previously shown to induce methuosis) or 15 μM AS1411 for 72 hrs. Photos were taken comparing the two treatment wells with untreated control cells, using a microscope with camera.

non-GBM tumor cell lines = conditions: cited from earlier work
U87-MG cells [2] = test: Cell surface PS (Annexin V-FITC) and propidium iodide by flow cytometry; type: cell-based; conditions: 6 μM AS1411
Method: FIG. 3. […] Error bars show mean +/−SD with **p<0.02 by Student's t-test when compared to control (untreated) cells.
U87-MG cells were seeded onto standard 60 mm cell culture dishes at ˜50% confluency. After 24 hrs, 6 μM of AS1411 in DMEM was added to each dish at 24, 48, and 72 hour time points. Cells were then stained with Annexin V-FITC using a standard staining protocol and evaluated for surface PS levels using flow cytometry.

U87-MG cells [3] = conditions: cited from earlier work
[4] = test system: Caspase-3 in U87-MG cells; test: Caspase-3 levels as a measure of apoptosis (EnzCheck Caspase-3 Assay Kit); type: cell-based; conditions: 15 μM AS1411 for 72 hrs vs 100 μM TMZ for 48 hrs
Method: Caspase activity was measured with a […]. Caspase levels were normalized to total cellular protein with BCA protein assay. Error bars show mean +/−SD.
U87-MG cells were seeded onto standard 60 mm cell culture dishes at 50% confluency. After 24 hrs, 15 μM of AS1411 in DMEM and 100 μM of temozolomide (TMZ) in DMEM were added to each dish. Cells were harvested at 72 hrs and 48 hrs respectively and analyzed using the EnzCheck Caspase-3 Assay Kit from Molecular Probes utilizing the Z-DEVD-AMC substrate (incubated for 30 minutes). Fluorescence excitation/emission: 340/440 nm) was measured with a standard fluorometer.

**Q.** For “5′-d(GGTGGTGGTGGTTGTGGTGGTGGTGG)-3′ [AS1411]”, which “morphologic changes, vacuolization” value (U87-MG cells [1]) is on record?
**A.** Its value is “induces morphologic changes including vacuolization”.

**Q.** What about the IC50 (non-GBM tumor cell lines) of the same substance?
**A.** Its IC50 is 1000 nM.

**Q.** What about the “propidium iodide (PI) positive (dead) cells” value (U87-MG cells [2]) of the same substance?
**A.** Its value is “without increasing PI”.

**Q.** And the “surface PS (Annexin V-FITC)” value (U87-MG cells [2]; 24, 48, 72 hrs)?
**A.** The value was “increases surface PS”.

**Q.** What about the IC50 (U87-MG cells [3]) of the same substance?
**A.** Its IC50 is 10 µM.

**Q.** And the caspase activity [4]?
**A.** The caspase activity was “does not increase caspase activity as much as the apoptotic drug TMZ”.

Reference: patent US11903999B2, “Combination of AS1411 and SAPC-DOPS for the treatment of glioblastoma multiforme” (University of Cincinnati, priority 2017, dated 2024)
